Assay results from paper PMC5073322, “Novel Natural Product-like Caged Xanthones Bearing a Carbamate Moiety Exhibit Antitumor Potency and Anti-Angiogenesis Activity In vivo” (Scientific Reports, 2016).
Converted amounts (≈) assume the structure as drawn.

Columns and labels:
[1] = set-up: method as in PMID 23167526; conditions: cited from earlier work
HCT116 = experiment: MTT antiproliferative assay, HCT116; conditions: Homo sapiens, HCT-116, 72 h, read-out: IC50 HCT116
Protocol: (§1) The inhibition of tumour cell growth was measured by a modified tetrazolium (MTT) salt assay, as previously described[39]. Cells were cultured in a 96-well plate and treated with culture medium alone or different concentrations of the compounds. The cells were incubated for 72 h, and then, the MTT assay reagent was added. After a 4 h incubation, the formazan product was quantitated at 570 nm. The IC50 values (the concentrations that gave rise to 50% inhibition of cell viability) were calculated using GraphPad Prism 6 using a variable slope (four parameters).

[2] = tested on: HepG2, HCT116, MDA-MB-231 and A549 cells; experiment: MTT antiproliferative assay, cell line panel
Protocol: as §1

HepG2 = experiment: MTT antiproliferative assay, HepG2; conditions: Homo sapiens, HepG2, 72 h, read-out: IC50 HepG2
Protocol: as §1

Water solubility by HPLC = format: physicochemical; conditions: thermodynamic from solid; deionized water, stirred overnight, HPLC 290 nm; read-out: S, water solubility
From the text: The physicochemical characteristics of compounds directly determine their potential drug-like properties. Assessing a compound’s physicochemical properties before performing in vivo evaluations can guide further studies and minimize the time and cost associated with drug discovery. Therefore, parallel to the in vivo study, these solubilities of these compounds in water were experimentally measured using high-performance liquid chromatography (HPLC). Based on the results of full wave scanning, 290 nm was chosen as the maximum absorption wavelength for HPLC detection.
A HPLC system with an ultraviolet (UV) detector was used to detect the solubility of the compounds. The optimal wavelength was 290 nm. Ethanol/water (85:15) was an efficient eluent at a flow rate of 0.5 mL/min. The compounds were stirred in deionized water overnight to maximize the retention of the compounds in solution. Then, the solutions were filtered and the supernatant was used as a fluid sample for HPLC detection. The permeability (Pe) of some of the compounds was tested with the help of a standard PAMPA (pION), as previously reported. PAMPA was performed on a PAMPA Explorer instrument (pION, Inc., Woburn, MA) with the PAMPA Explorer command software (Version 3.7.4.1). The compounds were diluted to 10 mM with the system solution buffer (pH 7.4). Then, 150 μL of the diluted compound solution was transferred to a UV plate, and the UV spectrum was collected and used as a reference. Then, paint the membrane with 5 μL of gastrointestinal tract (GIT) lipid. The acceptor chamber was filled with 200 μL of acceptor solution buffer, and the donor chamber was filled with 200 μL of diluted compound solution. The PAMPA sandwich was assembled and left at 25 °C for 4 h. The UV spectra (240–500 nm) from the donor and the acceptor were collected. The permeability coefficient was calculated with the PAMPA Explorer Command software (Version 3.7.4.1) based on the area under the curve (AUC) of the reference plate, the donor plate, and the acceptor plate. The permeability coefficient of the compound was tested for four times, and the data are shown as the average values. Ketoprofen (4.5×10^−6 cm/s) and propranolol (112.8×10^−6 cm/s) were used as the standards in this assay.

MDA-MB-231 = experiment: MTT antiproliferative assay, MDA-MB-231; conditions: Homo sapiens, MDA-MB-231, 72 h, read-out: IC50 MDA-MB-231
Protocol: as §1

A549 = experiment: MTT antiproliferative assay, A549; conditions: Homo sapiens, A549, 72 h, read-out: IC50 A549
Protocol: as §1

A549/cisplatin = experiment: MTT antiproliferative assay, cisplatin-resistant A549; format: cell-based; conditions: Homo sapiens, MTT, 72 h, read-out: IC50 A549/cisplatin
Protocol: as §1

A549/taxol = experiment: MTT antiproliferative assay, Taxol-resistant A549; format: cell-based; conditions: MTT, 72 h; Taxol-resistant A549; read-out: IC50 A549/taxol
Protocol: as §1

HepG2 tumours = experiment: HepG2 hepatoblastoma xenograft in nude mice; format: in vivo; conditions: control groups of the IV study, dose not given
Protocol: Given the in vitro anti-tumour cell activity of 8n, we continued to evaluate its in vivo effect in hepatoblastoma xenograft models using previously reported methods, and the water-soluble anti-cancer drug 5-fluorouracil (5-FU) was used as a positive control. After tumours were established, the mice were IV injected with 2.5, 5, 10 or 50 mg/kg 8n; the lead compound DDO-6101 and antitumour drug 5-FU were used as controls. All mice had normal weights and quality of life in in vivo tests. […] The in vivo activity of 8n was also evaluated after oral administration. […] This observation may be attributed to the improved physicochemical properties of 8n compared to those of DDO-6101, such as aqueous solubility and cell membrane permeability, which were provided by modification with the carbamate moiety.
Figure 7 (A) The tumour diameters were measured and used to calculate the tumour volumes. The HepG2 xenograft-bearing mice were intravenously injected with 2.5, 5, 10 and 50 mg/kg 8n for 20 days. (B) After 20 days, mice were sacrificed and the individual tumours were weighed. *p < 0.05, […]; Student’s t-test (n = 6). (C) The tumour diameters were measured and used to calculate the tumour volumes. The HepG2 xenograft-bearing mice were orally administered 50 mg/kg 8n, 50 mg/kg DDO-6101 or 10 mg/kg 5-FU for 20 days.
All studies were performed in compliance with the relevant guidelines and regulations. Tumours on female nude mice were established by injecting 1×10^7 HepG2 cells on the dorsal surface. After four weeks, tumours of approximately 150 mm^3 were cut into pieces that were 3 mm×3 mm×3 mm in size and were then implanted in the dorsal surface of other female nude mice. One week later, mice implanted with xenografts of 100 mm^3 were selected, randomized, and […] injected with 2.5, 5, or 10-mg/kg 8n or vehicle daily for another three weeks. The tumour dimensions were measured daily with vernier calipers, and the tumour volumes were calculated using the formula: volume = (width)^2 × length/2.

Heps tumour = tested on: Heps tumour; set-up: method as in PMID 25958244; conditions: Heps-transplanted mice, intravenous (IV) administration; cited from earlier work
[3] = biological target: Recombinant human Hsp90 protein; experiment: Hsp90 ATPase activity assay; format: biochemical; conditions: ADP detection, ATP 100 μM
From the text: Lianru Zhang, Brian S. J. Blagg, et al. reported that GA inhibited Hsp90 ATPase in vitro[21][38]. The effects of these compounds on Hsp90 ATPase activity were examined by measuring the ability of Hsp90 to hydrolyse ATP using a homogeneous time-resolved fluorescence (HTRF) assay to determine whether the caged-xanthone-derivatives of GA inhibited Hsp90. […] The inhibition of Hsp90 could decrease client protein levels. Based on the enzymatic, structural, and antiproliferative results, 8n was chosen for further investigation.
Figure 9 (A) The caged compounds (50 μM) inhibited the Hsp90 ATPase activity in a HTRF-based inhibition assay. (B) The IC50 values for the inhibition of Hsp90 ATPase by 8n, 8o and GA as detected by the HTRF Transcreener ADP kit. […] The amount of ADP generated was detected. […] (D) The mRNA expression of VEGF was determined by real-time quantitative reverse-transcriptase polymerase chain reaction (RT-PCR) and analysed by the delta Ct method. […]
To measure the Hsp90 ATPase activity, a ADP Hunter Plus Assay kit from DiscoverX was used as previously described. […] Then, the plate was incubated for another 0.5 h after the addition of ATP (100 μM), followed by addition of the detection reagent, and the fluorescence was measured at an excitation wavelength 540 nm and emission wavelength of 620 nm using a spectrophotometer (Varioskan multimode, Thermo). […]

In the case of `CC(C)=CCC12OC(C)(C)C3[C@@H](CN4CCN(C)CC4)C(C=C4C(=O)c5c(O)cccc5OC431)C2=O` (stereo partly shown) [DDO-6267], the “oral antitumor activity compared with GA” value [1] is given as “better oral antitumor activity than GA”.

For `COc1cccc2c1C(=O)C1=CC3CC4C(C)(C)OC(CC=C(C)C)(C3=O)C14O2` (stereo not shown) [Compound 3], the IC50 (HCT116) was 6100 ± 190 nM, the “fold less active than DDO-6101” value ([2]; three cancer cell lines) was 4–8 fold and the IC50 (HepG2) was 8550 ± 430 nM. It also gave a solubility (Water solubility by HPLC) of 10 µM (≈ 3.94 µg/mL) and an IC50 (MDA-MB-231) of 1800 ± 60 nM.

`CC(=O)Oc1cccc2c1C(=O)C1=CC3CC4C(C)(C)OC(CC=C(C)C)(C3=O)C14O2` (stereo not shown) [Compound 1] gave an IC50 (A549) of 3000 ± 800 nM, an IC50 (HCT116) of 1490 ± 170 nM and an IC50 ([2]; Homo sapiens, read-out: IC50 values, range over the cancer cell lines) of 970 to 1490 nM. It also gave an IC50 (HepG2) of 1070 ± 90 nM, a solubility (Water solubility by HPLC) of 20 µM (≈ 8.45 µg/mL) and an IC50 (MDA-MB-231) of 970 ± 90 nM. For the same molecule, the IC50 (A549/cisplatin) was 1530 ± 200 nM and the IC50 (A549/taxol) was 1620 ± 100 nM.

For `O=c1[nH]cc(F)c(=O)[nH]1` [Compound 5-FU, 5-fluorouracil, reference compound], the “inhibition of the tumour volume, control groups” value (HepG2 tumours) was 50.95%.

With `CC(C)=CCC12OC(C)(C)C3CC(C=C4C(=O)c5c(O)cccc5OC431)C2=O` (stereo not shown) [DDO-6101, reference compound] the IC50 (A549) was 2590 ± 170 nM, the IC50 (HCT116) was 710 ± 100 nM and the IC50 (HepG2) was 1140 ± 90 nM. The solubility (Water solubility by HPLC) was less than 5 µM, the IC50 (MDA-MB-231) was 320 ± 90 nM and the IC50 (A549/cisplatin) was 2110 ± 100 nM. The IC50 (A549/taxol) was 460 ± 30 nM and the “inhibition of the tumour volume, control groups” value (HepG2 tumours) was 36.81%.

For `C/C(=C\CC12OC(C)(C)C3CC(C=C4C(=O)c5c(O)cccc5OC431)C2=O)COC(=O)CN(C)C` (stereo not shown) [DDO-6306], the “inhibition of tumour growth” value (Heps tumour) is given as 52.6%.

`CO[C@H]1/C=C\C=C(/C)C(=O)NC2=CC(=O)C(NCCN(C)C)=C(C[C@@H](C)C[C@H](OC)[C@H](O)[C@@H](C)/C=C(\C)[C@@H]1OC(N)=O)C2=O` [Compound 17-DMAG, 17-(Dimethylaminoethylamino)-17-demethoxygeldanamycin] gave an IC50 [3] of 919 nM.
